This assay relates to C57BL/KsJdb/db mice. Nature of the assay: Hypoglycemic effect of single or combined administration in db/db mice (plasma glucose on day 14). It counts as in vivo, mouse. The note with it: for Decreasing rate: plasma glucose decrease vs control group mean. The protocol:
As test animals, C57BL/KsJdb/db mice were used, which were created in Jackson Laboratory (USA) and known as an obesity, hyperlipemia, hyperinsulinemia, and insulin-resistant model (Journal of Clinical Investigation, 85, pp 962-967, 1990). Blood was collected from the orbital venous plexus of each 7-week-old db/db mouse using a heparin-treated capillary tube, and centrifugation was performed to collect plasma. Thereafter, the plasma glucose concentration (Glucose CII-Test Wako (Wako Pure Chemical Industries, Ltd.)), the insulin concentration (Lebis Insulin Kit: for mouse-T (SHIBAYAGI)), and the triglyceride concentration (Triglyceride E-Test Wako (Wako Pure Chemical Industries, Ltd.)) were measured for classification. The classification was performed so that distribution of each measurement item is uniform for each group by block allocation based on many variables in which the plasma glucose concentration is most emphasized using the measured values of the plasma glucose concentration, the body weight, the insulin concentration, and the triglyceride concentration. […] Two hours after the administration of the medicines on the 14th day from the beginning day of the administration, blood was collected from the orbital venous plexus, and the plasma thereof was collected to measure the plasma glucose concentration. […] Each plasma glucose concentration is expressed as mean±standard deviation for 6 mice of each group. Each decreasing rate is calculated from ((mean of plasma glucose concentration of control group)−(mean of plasma glucose concentration of each group))/(mean of plasma glucose concentration of control group)×100, while each relative index is calculated from (mean of plasma glucose concentration of each group)/(mean of plasma glucose concentration of control group).

Structures are written as SMILES.

As to `CN(C)C(=N)NC(=N)N.Cl` [Metformin, 1,1-Dimethylbiguanide hydrochloride, reference compound], where the note is “300 mg/kg oral once a day for 14 days”, the Decreasing rate is recorded as 3%.

With `O=C([O-])C(Cl)(Cl)CCCCCCCCCCc1ccc(Cl)cc1.[Na+]` [sodium 2,2-dichloro-12-(4-chlorophenyl)-dodecanoate], the Relative index (3 mg/kg oral once a day for 14 days, mean plasma glucose of group / control group) was found to be 0.89. For the same compound, the Plasma glucose concentration (3 mg/kg oral once a day for 14 days, plasma 2 h after dosing on day 14, mean ± SD, 6 mice) amounted to 241 ± 116 mg/dL. Further, the Decreasing rate (3 mg/kg oral once a day for 14 days) is 11%. In addition, the “Decreasing effect for the plasma glucose concentration (in words)” value (single administration 3 mg/kg, 14 days, compared with normal db/+m mouse level (187±16)) is listed as “insufficient”.

The record behind these values is US20050272814A1, “Medicine for prevention or treatment of diabetes” (priority 2004, published 2005).
